Like-named read-outs stand apart in the source and are kept apart here.
Key:
Assay type in all cases: cell-based
hKv1.3 = hKv1.3 (Homo sapiens, UniProt P22001); experiment: cell-based; settings: Kv1.3 (IWQ) IC50 (nM, Avg)
[1] = system: IL-2 secretion from T cells in human whole blood; settings: read-out: WB (IL-2) IC50 (nM, Avg)
[2] = system: IFN-g secretion from T cells in human whole blood
[3] = read-out: WB (IFNg) IC50 (nM, Avg)
[4] = read-out: WB (IFNg) IC5- (nM, Avg)

hKv1.3, sequence (P22001 whole entry): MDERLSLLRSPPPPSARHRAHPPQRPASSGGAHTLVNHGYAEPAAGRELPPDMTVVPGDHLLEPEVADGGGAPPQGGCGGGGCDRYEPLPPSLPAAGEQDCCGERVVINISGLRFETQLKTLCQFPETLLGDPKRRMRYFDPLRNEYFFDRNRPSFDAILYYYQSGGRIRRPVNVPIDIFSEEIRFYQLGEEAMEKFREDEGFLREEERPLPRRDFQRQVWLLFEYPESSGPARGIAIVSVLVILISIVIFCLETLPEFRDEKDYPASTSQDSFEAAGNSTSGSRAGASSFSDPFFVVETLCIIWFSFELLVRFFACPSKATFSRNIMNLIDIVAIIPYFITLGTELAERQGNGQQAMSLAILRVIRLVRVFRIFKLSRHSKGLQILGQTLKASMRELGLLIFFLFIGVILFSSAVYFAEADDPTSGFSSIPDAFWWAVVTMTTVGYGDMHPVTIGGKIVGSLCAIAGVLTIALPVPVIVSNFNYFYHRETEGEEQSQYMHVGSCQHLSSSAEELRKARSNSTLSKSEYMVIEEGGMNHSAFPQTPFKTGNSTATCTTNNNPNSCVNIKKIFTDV

| Structure (SMILES) | IC50 (hKv1.3) [nM] | IC50 [1] [nM] | IC50 [2, 3] [nM] | IC50 [2, 4] [nM] |
| --- | --- | --- | --- | --- |
| CC[C@H](C)[C@@H]1NC(=O)[C@@H](NC(=O)[C@H](CO)NC(=O)[C@@H](N)CCCNC(=N)N)CSSC[C@@H](C(=O)O)NC(=O)[C@H]([C@@H](C)O)NC(=O)CNC(=O)[C@@H]2CSSC[C@@H]3NC(=O)[C@H](CCC(N)=O)NC(=O)[C@H](Cc4ccccc4)NC(=O)[C@H](C)NC(=O)[C@H]([C@@H](C)O)NC(=O)[C@H](CSSC[C@H](NC(=O)[C@H](Cc4ccccc4)NC(=O)[C@H](CO)NC(=O)[C@H](CC(C)C)NC(=O)[C@H](CCCNC(=N)N)NC(=O)[C@H](Cc4ccc(O)cc4)NC(=O)[C@H](CCCCN)NC(=O)[C@H](CCSC)NC(=O)[C@H](CO)NC(=O)[C@H](Cc4c[nH]cn4)NC(=O)[C@H](CCCCN)NC3=O)C(=O)N[C@@H](CCCNC(=N)N)C(=O)N[C@@H](CCCCN)C(=O)N[C@@H](CCCNC(=N)N)C(=O)N2)NC(=O)[C@H](CCCNC(=N)N)NC(=O)[C@H](CO)NC(=O)[C@H](CCCCN)NC(=O)[C@@H]2CCCN2C(=O)[C@H]([C@@H](C)CC)NC(=O)[C@H]([C@@H](C)O)NC(=O)[C@H](CC(=O)O)NC1=O [[Arg31]ShK] | 3.3 | 12 | 54.8 | – |
| CC[C@H](C)[C@@H]1NC(=O)[C@@H](NC(=O)[C@H](CO)NC(=O)[C@@H](N)CCCNC(=N)N)CSSC[C@@H](C(=O)O)NC(=O)[C@H]([C@@H](C)O)NC(=O)CNC(=O)[C@@H]2CSSC[C@@H]3NC(=O)[C@H](CCC(N)=O)NC(=O)[C@H](Cc4ccccc4)NC(=O)[C@H](C)NC(=O)[C@H]([C@@H](C)O)NC(=O)[C@H](CSSC[C@H](NC(=O)[C@H](Cc4ccccc4)NC(=O)[C@H](CO)NC(=O)[C@H](CC(C)C)NC(=O)[C@H](CCCNC(=N)N)NC(=O)[C@H](Cc4ccc(O)cc4)NC(=O)[C@H](CCCCN)NC(=O)[C@H](CCSC)NC(=O)[C@H](CO)NC(=O)[C@H](Cc4c[nH]cn4)NC(=O)[C@H](CCCCN)NC3=O)C(=O)N[C@@H](CCCNC(=N)N)C(=O)N[C@@H](CCCCN)C(=O)N[C@@H]([C@@H](C)O)C(=O)N2)NC(=O)[C@H](CCCNC(=N)N)NC(=O)[C@H](CO)NC(=O)[C@H](CCCCN)NC(=O)[C@@H]2CCCN2C(=O)[C@H](CCC(=O)O)NC(=O)[C@H]([C@@H](C)O)NC(=O)[C@H](CC(=O)O)NC1=O [[Glu7]ShK] | 1.25 | 5 | – | 19.5 |
| CCC[C@@H]1NC(=O)[C@H](CO)NC(=O)[C@H](Cc2c[nH]cn2)NC(=O)[C@H](CCCCN)NC(=O)[C@@H]2CSSC[C@@H]3NC(=O)[C@H]([C@@H](C)O)NC(=O)[C@H](CCCCN)NC(=O)[C@H](CCCNC(=N)N)NC(=O)[C@H](CSSC[C@H](NC(=O)[C@H](CCCNC(=N)N)NC(=O)[C@H](CO)NC(=O)[C@H](CCCCN)NC(=O)[C@@H]4CCCN4C(=O)[C@H]([C@@H](C)CC)NC(=O)[C@H]([C@@H](C)O)NC(=O)[C@H](CC(=O)O)NC(=O)[C@H]([C@@H](C)CC)NC(=O)[C@@H](NC(=O)[C@H](CO)NC(=O)[C@@H](N)CCCNC(=N)N)CSSC[C@@H](C(=O)N[C@@H](CO)C(N)=O)NC(=O)[C@H]([C@@H](C)O)NC(=O)CNC3=O)C(=O)N[C@@H]([C@@H](C)O)C(=O)N[C@@H](C)C(=O)N[C@@H](Cc3ccccc3)C(=O)N[C@@H](CCCCN)C(=O)N2)NC(=O)[C@H](Cc2ccccc2)NC(=O)[C@H](CO)NC(=O)[C@H](CC(C)C)NC(=O)[C@H](CCCNC(=N)N)NC(=O)[C@H](Cc2ccc(O)cc2)NC(=O)[C@H](CCCCN)NC1=O [[Lys16,Nva21]ShK-Ser-amide] | 0.09 | 0.467 | 0.662 | – |
| CC[C@H](C)[C@@H]1NC(=O)[C@H]([C@@H](C)O)NC(=O)[C@H](CC(=O)O)NC(=O)[C@H](CCC(=O)O)NC(=O)[C@@H](NC(=O)[C@H](CO)NC(=O)[C@@H](N)CCCNC(=N)N)CSSC[C@@H](C(=O)O)NC(=O)[C@H]([C@@H](C)O)NC(=O)CNC(=O)[C@@H]2CSSC[C@@H]3NC(=O)[C@H](CCC(N)=O)NC(=O)[C@H](Cc4ccccc4)NC(=O)[C@H](C)NC(=O)[C@H]([C@@H](C)O)NC(=O)[C@H](CSSC[C@H](NC(=O)[C@H](Cc4ccccc4)NC(=O)[C@H](CO)NC(=O)[C@H](CC(C)C)NC(=O)[C@H](CCCNC(=N)N)NC(=O)[C@H](Cc4ccc(O)cc4)NC(=O)[C@H](CCCCN)NC(=O)[C@H](CCSC)NC(=O)[C@H](CO)NC(=O)[C@H](Cc4c[nH]cn4)NC(=O)[C@H](CCCCN)NC3=O)C(=O)N[C@@H](CCCNC(=N)N)C(=O)N[C@@H](CCCCN)C(=O)N[C@@H]([C@@H](C)O)C(=O)N2)NC(=O)[C@H](CCCNC(=N)N)NC(=O)[C@H](CO)NC(=O)[C@H](CCCCN)NC(=O)[C@@H]2CCCN2C1=O [[Glu4]ShK] | 0.07 | 0.031 | – | 0.049 |
| CC[C@H](C)[C@@H]1NC(=O)[C@@H](NC(=O)[C@H](Cc2cccc3ccccc23)NC(=O)[C@@H](N)CCCNC(=N)N)CSSC[C@@H](C(=O)O)NC(=O)[C@H]([C@@H](C)O)NC(=O)CNC(=O)[C@@H]2CSSC[C@@H]3NC(=O)[C@H](CCC(N)=O)NC(=O)[C@H](Cc4ccccc4)NC(=O)[C@H](C)NC(=O)[C@H]([C@@H](C)O)NC(=O)[C@H](CSSC[C@H](NC(=O)[C@H](Cc4ccccc4)NC(=O)[C@H](CO)NC(=O)[C@H](CC(C)C)NC(=O)[C@H](CCCNC(=N)N)NC(=O)[C@H](Cc4ccc(O)cc4)NC(=O)[C@H](CCCCN)NC(=O)[C@H](CCSC)NC(=O)[C@H](CO)NC(=O)[C@H](Cc4c[nH]cn4)NC(=O)[C@H](CCCCN)NC3=O)C(=O)N[C@@H](CCCNC(=N)N)C(=O)N[C@@H](CCCCN)C(=O)N[C@@H]([C@@H](C)O)C(=O)N2)NC(=O)[C@H](CCCNC(=N)N)NC(=O)[C@H](CO)NC(=O)[C@H](CCCCN)NC(=O)[C@@H]2CCCN2C(=O)[C@H]([C@@H](C)CC)NC(=O)[C@H]([C@@H](C)O)NC(=O)[C@H](CC(=O)O)NC1=O [[1-Nal2]ShK] | 0.25 | 0.223 | 0.258 | – |
| CC[C@H](C)[C@@H]1NC(=O)[C@@H](NC(=O)[C@H](CO)NC(=O)[C@@H](N)CCCNC(=N)N)CSSC[C@@H](C(=O)O)NC(=O)[C@H]([C@@H](C)O)NC(=O)CNC(=O)[C@@H]2CSSC[C@@H]3NC(=O)[C@H](CCC(N)=O)NC(=O)[C@H](Cc4ccccc4)NC(=O)[C@H](C)NC(=O)[C@H]([C@@H](C)O)NC(=O)[C@H](CSSC[C@H](NC(=O)[C@H](Cc4ccccc4)NC(=O)[C@H](CO)NC(=O)[C@H](CC(C)C)NC(=O)[C@H](CCCNC(=N)N)NC(=O)[C@H](Cc4ccc(O)cc4)NC(=O)[C@H](CCCCN)NC(=O)[C@H](CCSC)NC(=O)[C@H](CCC(=O)O)NC(=O)[C@H](Cc4c[nH]cn4)NC(=O)[C@H](CCCCN)NC3=O)C(=O)N[C@@H](CCCNC(=N)N)C(=O)N[C@@H](CCCCN)C(=O)N[C@@H]([C@@H](C)O)C(=O)N2)NC(=O)[C@H](CCCNC(=N)N)NC(=O)[C@H](CO)NC(=O)[C@H](CCCCN)NC(=O)[C@@H]2CCCN2C(=O)[C@H]([C@@H](C)CC)NC(=O)[C@H]([C@@H](C)O)NC(=O)[C@H](CC(=O)O)NC1=O [[Glu20]ShK] | 100 | 92 | – | 92 |
| CCCC[C@@H]1NC(=O)[C@H](CO)NC(=O)[C@H](Cc2c[nH]cn2)NC(=O)[C@H](CCCNC(=N)N)NC(=O)[C@@H]2CSSC[C@@H]3NC(=O)[C@H]([C@@H](C)O)NC(=O)[C@H](CCCNC(=N)N)NC(=O)[C@H](CCCCN)NC(=O)[C@H](CSSC[C@H](NC(=O)[C@H](CCCNC(=N)N)NC(=O)[C@H](CO)NC(=O)[C@H](CCCCN)NC(=O)[C@@H]4CCCN4C(=O)[C@H]([C@@H](C)CC)NC(=O)[C@H]([C@@H](C)O)NC(=O)[C@H](CC(=O)O)NC(=O)[C@H](CCC(=O)O)NC(=O)[C@@H](NC(=O)[C@H](CO)NC(=O)[C@@H](N)CCCNC(=N)N)CSSC[C@@H](C(N)=O)NC(=O)[C@H]([C@@H](C)O)NC(=O)CNC3=O)C(=O)N[C@@H]([C@@H](C)O)C(=O)N[C@@H](C)C(=O)N[C@@H](Cc3ccccc3)C(=O)N[C@@H](CCCCN)C(=O)N2)NC(=O)[C@H](Cc2ccccc2)NC(=O)[C@H](CO)NC(=O)[C@H](CC(C)C)NC(=O)[C@H](CCCNC(=N)N)NC(=O)[C@H](Cc2ccc(O)cc2)NC(=O)[C@H](CCCCN)NC1=O | 0.269 | 1.96 | 1.33 | – |
| CC[C@H](C)[C@@H]1NC(=O)[C@@H](NC(=O)[C@H](CO)NC(=O)[C@@H](N)CCCNC(=N)N)CSSC[C@@H](C(N)=O)NC(=O)[C@H]([C@@H](C)O)NC(=O)CNC(=O)[C@@H]2CSSC[C@@H]3NC(=O)[C@H](CCCCN)NC(=O)[C@H](Cc4ccccc4)NC(=O)[C@H](C)NC(=O)[C@H]([C@@H](C)O)NC(=O)[C@H](CSSC[C@H](NC(=O)[C@H](Cc4ccccc4)NC(=O)[C@H](Cc4ccc(O)cc4)NC(=O)[C@H](CC(C)C)NC(=O)[C@H](CCCNC(=N)N)NC(=O)[C@H](Cc4ccc(O)cc4)NC(=O)[C@H](CCCCN)NC(=O)[C@H](CCSC)NC(=O)[C@H](CO)NC(=O)[C@H](Cc4c[nH]cn4)NC(=O)[C@H](CCCCN)NC3=O)C(=O)N[C@@H](CCCCN)C(=O)N[C@@H](CCCCN)C(=O)N[C@@H]([C@@H](C)O)C(=O)N2)NC(=O)[C@H](CCCNC(=N)N)NC(=O)[C@H](CO)NC(=O)[C@H](CCCCN)NC(=O)[C@@H]2CCCN2C(=O)[C@H]([C@@H](C)CC)NC(=O)[C@H]([C@@H](C)O)NC(=O)[C@H](CC(=O)O)NC1=O [[Lys16,29;Tyr26]ShK-amide] | 0.084 | 1.04 | 0.754 | – |
| CCCC[C@@H]1NC(=O)[C@H](CO)NC(=O)[C@H](Cc2c[nH]cn2)NC(=O)[C@H](CCCCN)NC(=O)[C@@H]2CSSC[C@@H]3NC(=O)[C@H]([C@@H](C)O)NC(=O)[C@H](CCCCN)NC(=O)[C@H](CCCNC(=N)N)NC(=O)[C@H](CSSC[C@H](NC(=O)[C@H](CCCNC(=N)N)NC(=O)[C@H](CO)NC(=O)[C@H](CCCCN)NC(=O)[C@@H]4CCCN4C(=O)[C@H]([C@@H](C)CC)NC(=O)[C@H]([C@@H](C)O)NC(=O)[C@H](CC(=O)O)NC(=O)[C@H](CCC(=O)O)NC(=O)[C@@H](NC(=O)[C@H](CO)NC(=O)[C@@H](N)CCCNC(=N)N)CSSC[C@@H](C(N)=O)NC(=O)[C@H]([C@@H](C)O)NC(=O)CNC3=O)C(=O)N[C@@H]([C@@H](C)O)C(=O)N[C@@H](C)C(=O)N[C@@H](C)C(=O)N[C@@H](CCCCN)C(=O)N2)NC(=O)[C@H](Cc2ccccc2)NC(=O)[C@H](CO)NC(=O)[C@H](CC(C)C)NC(=O)[C@H](CCCNC(=N)N)NC(=O)[C@H](Cc2ccc(O)cc2)NC(=O)[C@H](CCCCN)NC1=O [[Glu4,A1a15,Lys16,Nle21]ShK-amide] | 0.168 | 0.856 | 0.901 | – |

Reference: patent publication US20120121591A1 (priority 2009, published 2012)
